Target: T1, rat NaPi-2b (Rattus norvegicus, UniProt Q9JJ09)
T1 construct: expressed in transfected cells; host or cells: Xenopus oocytes injected with cRNA
T1 sequence (Q9JJ09 1-695): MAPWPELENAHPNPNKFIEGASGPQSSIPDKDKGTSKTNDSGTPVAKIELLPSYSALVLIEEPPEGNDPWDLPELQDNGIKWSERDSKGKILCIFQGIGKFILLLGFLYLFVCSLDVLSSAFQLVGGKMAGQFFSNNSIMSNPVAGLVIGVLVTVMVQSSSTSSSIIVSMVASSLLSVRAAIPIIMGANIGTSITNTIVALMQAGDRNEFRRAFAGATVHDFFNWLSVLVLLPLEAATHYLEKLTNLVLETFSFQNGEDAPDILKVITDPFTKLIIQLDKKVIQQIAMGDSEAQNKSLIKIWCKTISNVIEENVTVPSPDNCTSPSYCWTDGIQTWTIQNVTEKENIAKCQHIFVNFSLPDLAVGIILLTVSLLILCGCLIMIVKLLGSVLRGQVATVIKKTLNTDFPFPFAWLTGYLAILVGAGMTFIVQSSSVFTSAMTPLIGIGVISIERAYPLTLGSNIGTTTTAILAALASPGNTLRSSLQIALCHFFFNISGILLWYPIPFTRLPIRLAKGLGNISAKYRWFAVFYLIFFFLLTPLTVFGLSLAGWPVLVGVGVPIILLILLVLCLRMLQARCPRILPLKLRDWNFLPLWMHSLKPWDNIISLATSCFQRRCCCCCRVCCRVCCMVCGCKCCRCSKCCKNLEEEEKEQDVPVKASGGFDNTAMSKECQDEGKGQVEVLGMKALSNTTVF
Test: Sodium-dependent phosphate uptake of Xenopus oocytes which expressed NaPi-2b (32P)
Assay type: cell-based
Details: for IC50: Xenopus oocytes expressing rat NaPi-2b, 32P radioactive phosphorus, read-out: IC50 (phosphate uptake inhibitory activity); for inhibition at 300 µM: phosphate uptake, oocytes expressing rat NaPi-2b, determined from inhibition curve
Summary of the method: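 Inhibition at 300 μM and 100 μM was read off one inhibition curve of 32P phosphate uptake. Uptake was measured in Xenopus oocytes cultured 2 days after injection of cRNA for cloned rat NaPi-2b.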

Row | IC50 [µM] | inhibition at 300 µM [%] | Structure (SMILES)
1 | 4.43 | – | Cc1ccc(/C=N/NC(=O)c2cc(Br)ccc2NC(=O)c2ccc(CN3CCC(O)CC3)cc2)cc1C [Compound 324, N-[4-Bromo-2-(3,4-dimethyl-benzylidene-hydrazinocarbonyl)-phenyl]-4-(4-hydroxy-piperidin-1-ylmethyl)-benzamide]
2 | 16.6 | – | COc1ccc(C(=O)Nc2ccccc2C(=O)N/N=C(\C)c2cccc(F)c2)cc1OC [Compound 213, N-{2-[1-(3-Fluoro-phenyl)-ethylidene-hydrazinocarbonyl]-phenyl}-3,4-dimethoxy-benzamide]
3 | < 3 | – | CCN1CC(NCc2ccc(C(=O)Nc3ccc(Br)cc3C(=O)N/N=C/c3ccc(C)c(C)c3)cc2)CN1CC [Compound 750, N-[4-Bromo-2-(3,4-dimethyl-benzylidene-hydrazinocarbonyl)-phenyl]-4-[(1,2-diethyl-pyrazolidin-4-ylamino)-methyl]-benzamide]
4 | 19 | – | COc1ccc(/C=N/NC(=O)c2cc(Br)ccc2NC(=O)c2ccc(CN3CCC(CO)CC3)cc2)cc1 [Compound 338, N-[4-Bromo-2-(4-methoxy-benzylidene-hydrazinocarbonyl)-phenyl]-4-(4-hydroxymethyl-piperidin-1-ylmethyl)-benzamide]
5 | 3.98 | – | Cc1csc(NC(=O)c2cccc(CN3CCC(CO)CC3)c2)c1C(=O)N/N=C/c1cccc(F)c1 [Compound 602, N-[3-(3-Fluoro-benzylidene-hydrazinocarbonyl)-4-methyl-thiophen-2-yl]-3-(4-hydroxymethyl-piperidin-1-ylmethyl)-benzamide]
6 | < 3 | – | O=C(Nc1sc2c(c1C(=O)N/N=C/c1ccc(Cl)c(C(F)(F)F)c1)CCCC2)c1cccc(CN2CCC(N3CCCCC3)CC2)c1 [Compound 619, 3-[1,4′]Bipiperidinyl-1′-ylmethyl-N-[3-(4-chloro-3-trifluoromethyl-benzylidene-hydrazinocarbonyl)-4,5,6,7-tetrahydro-benzo[b]thiophen-2-yl]-benzamide]
7 | < 3 | – | C/C(=N\NC(=O)c1cc(Br)ccc1NC(=O)c1cccnc1)c1cccc(C)c1 [Compound 215, N-[4-Bromo-2-(1-m-toluyl-ethylidene-hydrazinocarbonyl)-phenyl]-nicotinamide]
8 | 5.63 | – | COc1ccc(C(=O)Nc2ccccc2C(=O)N/N=C/c2ccc(C)c(C)c2)cc1 [Compound 94, N-[2-(3,4-Dimethyl-benzylidene-hydrazinocarbonyl)-phenyl]-4-methoxy-benzamide]
9 | < 3 | – | Cc1ccc(/C=N/n2c(-c3cccc(CSCCO)c3)nc3ccc(Br)cc3c2=O)cc1C [Compound 697, 6-Bromo-3-[(3,4-dimethyl-benzylidene-)-amino]-2-[3-(2-hydroxy-ethylsulfanylmethyl)-phenyl]-3H-quinazolin-4-one]
10 | 2.02 | – | O=C(Nc1ccc(Cl)cc1C(=O)N/N=C/c1ccc(F)cc1)c1cccnc1 [Compound 185, N-[4-Chloro-2-(4-fluoro-benzylidene-hydrazinocarbonyl)-phenyl]-nicotinamide]
11 | 10.9 | – | O=C(Nc1ccccc1C(=O)N/N=C/c1cccc(O)c1)c1ccc(F)cc1 [Compound 80, 4-Fluoro-N-[2-(3-hydroxy-benzylidene-hydrazinocarbonyl)-phenyl]-benzamide]
12 | < 3 | – | O=C(Nc1ccc(Br)cc1C(=O)N/N=C/c1ccc(Cl)c(C(F)(F)F)c1)c1cccc(CS(=O)(=O)CCO)c1 [Compound 678, N-[4-Bromo-2-(4-chloro-3-trifluoromethyl-benzylidene-hydrazinocarbonyl)-phenyl]-3-(2-hydroxy-ethanesulfonylmethyl)-benzamide]
13 | 7.58 | – | CCN(CC)CCNCc1ccc(C(=O)Nc2ccc(Br)cc2C(=O)N/N=C/c2ccc(F)cc2)cc1 [Compound 295, N-[4-Bromo-2-(4-fluoro-benzylidene-hydrazinocarbonyl)-phenyl]-4-[(2-diethylamino-ethylamino)-methyl]-benzamide]
14 | 2.16 | – | CCN(CC)CCN(C)Cc1cccc(C(=O)Nc2sc3c(c2C(=O)N/N=C/c2ccc(F)cc2)CCCC3)c1 [Compound 611, 3-{[(2-Diethylamino-ethyl)-methyl-amino]-methyl}-N-[3-(4-fluoro-benzylidene-hydrazinocarbonyl)-4,5,6,7-tetrahydro-benzo-[b]thiophen-2-yl]-benzamide]
15 | 3.63 | – | O=C(Nc1ccccc1C(=O)N/N=C/c1ccccc1)c1ccccc1F [Compound 27, N-[2-(Benzylidene-hydrazinocarbonyl)-phenyl]-2-fluoro-benzamide]
16 | 0.89 | – | COc1cc(OC)cc(C(=O)Nc2ccccc2C(=O)N/N=C/c2ccc(F)cc2)c1 [Compound 56, N-[2-(4-Fluoro-benzylidene-hydrazinocarbonyl)-phenyl]-3,5-dimethoxy-benzamide]
17 | 16.8 | – | COc1cccc(/C=N/NC(=O)c2cc(Br)ccc2NC(=O)c2ccc(CN3CCC(CCO)CC3)cc2)c1 [Compound 746, N-[4-Bromo-2-(3-methoxy-benzylidene-hydrazinocarbonyl)-phenyl]-4-[4-(2-hydroxy-ethyl)-piperidin-1-ylmethyl]-benzamide]
18 | 2.55 | – | COc1cc(OC)cc(C(=O)Nc2ccc(Br)cc2C(=O)N/N=C/c2cccc(F)c2)c1 [Compound 114, N-[4-Bromo-2-(3-fluoro-benzylidene-hydrazinocarbonyl)-phenyl]-3,5-dimethoxy-benzamide]
19 | 4.21 | – | Cc1ccc(/C=N/NC(=O)c2cc(Cl)ccc2NC(=O)c2ccncc2)cc1C [Compound 193, N-[4-Chloro-2-(3,4-dimethyl-benzylidene-hydrazinocarbonyl)-phenyl]-isonicotinamide]
20 | – | 59.1 | CC(C)(C)c1cccc(/C=N/NC(=O)c2ccccc2NC(=O)c2ccccc2F)c1O [Compound 239, N-[2-(3-Tert-butyl-2-hydroxy-benzylidene-hydrazinocarbonyl)-phenyl]-2-fluoro-benzamide]
21 | 5.78 | – | COc1ccc(NC(=O)c2ccc(OC)c(OC)c2)c(C(=O)N/N=C/c2cccc(F)c2)c1 [Compound 141, N-[2-(3-Fluoro-benzylidene-hydrazinocarbonyl)-4-methoxy-phenyl]-3,4-dimethoxy-benzamide]
22 | 1.24 | – | COc1ccc(/C=N/NC(=O)c2cc(N3CCCCC3)ccc2NC(=O)c2cccc(CSCCO)c2)cc1 [Compound 885, 3-(2-Hydroxy-ethylsulfanylmethyl)-N-[2-(4-methoxy-benzylidene-hydrazinocarbonyl)-4-piperidin-1-yl-phenyl]-benzamide]
23 | 1.24 | – | O=C(Nc1ccc(Br)cc1C(=O)N/N=C/c1ccc(Cl)c(C(F)(F)F)c1)c1ccc(CN2CCC(N3CCCCC3)CC2)cc1 [Compound 313, 4-[1,4′]Bipiperidinyl-1′-ylmethyl-N-[4-bromo-2-(4-chloro-3-trifluoromethyl-benzylidene-hydrazinocarbonyl)-phenyl]-benzamide]
24 | 5.86 | – | O=C(Nc1ccc(Br)cc1C(=O)N/N=C/c1ccc(F)cc1)c1ccc(CN2CCC(CO)CC2)cc1 [Compound 335, N-[4-Bromo-2-(4-fluoro-benzylidene-hydrazinocarbonyl)-phenyl]-4-(4-hydroxymethyl-piperidin-1-ylmethyl)-benzamide]
25 | 0.95 | – | Cc1ccc(/C=N/NC(=O)c2c(NC(=O)c3cccc(CSCCCO)c3)sc3c2CCCC3)cc1C [Compound 605, N-[3-(3,4-Dimethyl-benzylidene-hydrazinocarbonyl)-4,5,6,7-tetrahydro-benzo[b]thiophen-2-yl]-3-(3-hydroxy-propylsulfanyl-methyl)-benzamide]
26 | < 3 | – | Cc1ccc(/C=N/NC(=O)c2c(C)csc2NC(=O)c2cccc(CN3CCN(CCO)CC3)c2)cc1 [Compound 576, 3-[4-(2-Hydroxy-ethyl)-piperazin-1-ylmethyl]-N-[4-methyl-3-(4-methyl-benzylidene-hydrazinocarbonyl)-thiophen-2-yl]-benzamide]
27 | 2.37 | – | Cc1ccc(/C=N/NC(=O)c2cc(Br)ccc2NC(=O)c2ccco2)cc1 [Compound 154, Furan-2-carboxylic acid [4-bromo-2-(4-methyl-benzylidene-hydrazinocarbonyl)-phenyl]-amide]
28 | – | 52.7 | COc1ccc(/C=N/NC(=O)c2cccnc2NC(=O)c2cccc(CN(CC(C)O)CC(C)O)c2)cc1 (stereo not drawn) [Compound 968, 3-{[Bis-(2-hydroxy-propyl)-amino]-methyl}-N-[3-(4-methoxy-benzylidene-hydrazinocarbonyl)-pyridin-2-yl]-benzamide]
29 | 1.47 | – | O=C(Nc1ccc(Cl)cc1C(=O)N/N=C/c1ccc(Cl)c(C(F)(F)F)c1)c1cccnc1 [Compound 189, N-[4-Chloro-2-(4-chloro-3-trifluoromethyl-benzylidene-hydrazinocarbonyl)-phenyl]-nicotinamide]

Row | Structure (SMILES) | IC50 [µM] | inhibition at 300 µM [%]
30 | O=C(Nc1ccccc1C(=O)N/N=C/c1ccccc1)c1ccccc1 [Compound 224, N-[2-(Benzylidene-hydrazinocarbonyl)-phenyl]-benzamide] | 20 | –
